Consider eight compounds from PubChem BioAssay (NCI).

Each structure is given as a SMILES string.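 Briefly, cells in 96-well plates were exposed to five compound concentrations for 48 h, and endpoints were estimated by linear interpolation. Here, GI50 denotes the concentration required for 50% inhibition of growth. TGI marks complete inhibition of growth.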

Test systems include UO-31 renal; HCT-15 colon; MDA-MB-435; EKVX NSCLC; OVCAR-5 ovarian; HOP-62 NSCLC; DU-145 prostate; A549 NSCLC; SF-539 CNS; RXF 393 renal.
Common to all, as to experiment: inhibition of tumour cell growth, NCI panel, 48 h

On to `CN(N=O)N1C(=O)SCC(c2ccccc2)(c2ccccc2)C1=O`, for which the TGI with UO-31 renal is above 100 µM; in the experiment with HCT-15 colon it was above 100 µM; with MDA-MB-435 it was 73.3 µM; with EKVX NSCLC, above 100 µM; in the experiment on OVCAR-5 ovarian, above 100 µM; with HOP-62 NSCLC, above 100 µM. Also, the TGI in the experiment with DU-145 prostate was above 100 µM; with A549 NSCLC, above 100 µM; in the experiment on SF-539 CNS, 65.5 µM; in the experiment with RXF 393 renal, 59.2 µM.
Take `CN1CCN(CCCn2c3c(sc4ncccc43)c(=O)n3nnc(-c4ccccc4)c23)CC1`: the GI50 in the experiment on UO-31 renal is 0.802 µM; in the experiment on HCT-15 colon it was 1.87 µM; in the experiment on MDA-MB-435, 1.79 µM; in the experiment with EKVX NSCLC it was 2.08 µM; in the experiment on OVCAR-5 ovarian, 6.89 µM; in the experiment on HOP-62 NSCLC it was 1.63 µM. Besides, the GI50 is 1.67 µM in the experiment with DU-145 prostate, 1.54 µM with A549 NSCLC, 1.71 µM with SF-539 CNS and 4.4 µM in the experiment on RXF 393 renal. Further, the TGI in the experiment with UO-31 renal was 2.42 µM; in the experiment on HCT-15 colon, 4.3 µM; in the experiment on MDA-MB-435, 3.5 µM; in the experiment with EKVX NSCLC, 5.58 µM; in the experiment on OVCAR-5 ovarian, 15.9 µM; with HOP-62 NSCLC, 3.4 µM. The TGI with DU-145 prostate stood at 3.24 µM; in the experiment on A549 NSCLC, 2.92 µM; with SF-539 CNS, 3.33 µM; in the experiment on RXF 393 renal, 8.75 µM.
As for `CCN1C(=O)N(CC)C2C1NN=c1s/c(=C\c3ccc(Br)cc3)c(=O)n12` (configuration not stated), the GI50 with UO-31 renal was 1.51 µM; in the experiment on HCT-15 colon it was 0.0598 µM; in the experiment with MDA-MB-435 it was 0.0252 µM; in the experiment with EKVX NSCLC, 0.502 µM; in the experiment on OVCAR-5 ovarian, 0.583 µM; with HOP-62 NSCLC it was 0.305 µM. In addition, the GI50 with DU-145 prostate is 0.352 µM; with A549 NSCLC, 0.313 µM; with SF-539 CNS, 0.0759 µM; with RXF 393 renal, 0.147 µM. Moreover, the TGI is above 100 µM with UO-31 renal; above 100 µM in the experiment on HCT-15 colon; 0.0706 µM in the experiment with MDA-MB-435; above 100 µM in the experiment with EKVX NSCLC; above 100 µM with OVCAR-5 ovarian; above 100 µM with HOP-62 NSCLC. For the same compound, the TGI is above 100 µM with DU-145 prostate, above 100 µM in the experiment with A549 NSCLC, 5.87 µM with SF-539 CNS and above 100 µM with RXF 393 renal.
With `COc1cccc(/C=C/C(=O)c2cc3c(N)c(C(=O)Nc4ccccc4)sc3nc2C)c1`, the GI50 with UO-31 renal is 0.842 µM; in the experiment with HCT-15 colon it was 1.16 µM; with MDA-MB-435, 0.989 µM; with EKVX NSCLC it was 5.8 µM; in the experiment with OVCAR-5 ovarian, 1.28 µM; in the experiment on HOP-62 NSCLC it was 1.09 µM. The GI50 in the experiment on DU-145 prostate was 1.39 µM; in the experiment on A549 NSCLC, 1.51 µM; with SF-539 CNS it was 0.957 µM; with RXF 393 renal it was 0.837 µM. For the same compound, the TGI with UO-31 renal was 1.62 µM; in the experiment on HCT-15 colon, 3.37 µM; in the experiment on MDA-MB-435, 2.86 µM; with EKVX NSCLC, 13.1 µM; in the experiment with OVCAR-5 ovarian, 4.61 µM; in the experiment on HOP-62 NSCLC, 2.44 µM. Moreover, the TGI in the experiment with DU-145 prostate amounted to 4.37 µM; with A549 NSCLC, 6.23 µM; with SF-539 CNS, 1.84 µM; in the experiment with RXF 393 renal, 1.71 µM.
Take `OC(CBr)C(O)C(O)C(O)CBr` (configuration not stated): the GI50 in the experiment on UO-31 renal and in the experiment with HCT-15 colon was above 100 µM each time. Moreover, the TGI in the experiment on UO-31 renal, in the experiment on HCT-15 colon, with MDA-MB-435, with EKVX NSCLC, with OVCAR-5 ovarian and in the experiment with HOP-62 NSCLC was above 100 µM throughout. Moreover, the TGI with DU-145 prostate, in the experiment on A549 NSCLC, in the experiment with SF-539 CNS and with RXF 393 renal was above 100 µM throughout.
`COc1cc(/C=C/[N+](=O)[O-])cc(OC)c1`: the GI50 in the experiment with UO-31 renal was 1.78 µM; in the experiment on HCT-15 colon, 1.99 µM; with MDA-MB-435, 2.99 µM; in the experiment on EKVX NSCLC it was 4.05 µM; in the experiment with OVCAR-5 ovarian, 3.66 µM; in the experiment on HOP-62 NSCLC, 2.93 µM. For the same compound, the GI50 was 1.97 µM in the experiment with DU-145 prostate, 3.94 µM with A549 NSCLC, 2.49 µM in the experiment on SF-539 CNS and 1.75 µM with RXF 393 renal. Besides, the TGI with UO-31 renal came out at 3.4 µM; in the experiment with HCT-15 colon it was 6.11 µM; with MDA-MB-435, 10.3 µM; in the experiment with EKVX NSCLC, 27.1 µM; in the experiment on OVCAR-5 ovarian, 13.4 µM; in the experiment on HOP-62 NSCLC it was 10.4 µM. Moreover, the TGI was 4.03 µM in the experiment with DU-145 prostate, 16.8 µM with A549 NSCLC, 5.56 µM in the experiment with SF-539 CNS and 3.27 µM in the experiment with RXF 393 renal.
With `Cc1ccc2c(c1)n([O-])c(C(F)(F)F)c(C(=O)c1ccco1)[n+]2=O`, the GI50 with UO-31 renal was 0.319 µM; in the experiment with HCT-15 colon, 0.562 µM; in the experiment with MDA-MB-435 it was 0.744 µM; with EKVX NSCLC it was 0.719 µM; in the experiment with OVCAR-5 ovarian, 1.72 µM; in the experiment with HOP-62 NSCLC, 0.996 µM. Further, the GI50 in the experiment with DU-145 prostate was 0.564 µM; in the experiment with A549 NSCLC it was 0.965 µM; with SF-539 CNS it was 0.918 µM; with RXF 393 renal it was 0.622 µM. Further, the TGI in the experiment with UO-31 renal was determined as 1.81 µM; in the experiment on HCT-15 colon, 7.62 µM; in the experiment on MDA-MB-435, 2.65 µM; with EKVX NSCLC, 2.88 µM; with OVCAR-5 ovarian, 9.03 µM; in the experiment on HOP-62 NSCLC, 3.85 µM. Further, the TGI stood at 1.33 µM in the experiment with DU-145 prostate, 3.35 µM in the experiment on A549 NSCLC, 2.67 µM in the experiment with SF-539 CNS and 2.91 µM with RXF 393 renal.
As to `COc1cc(-c2cc(-c3ccc(Nc4nc(Nc5ccc(Cl)cc5)nc(Nc5ccc(Cl)cc5)n4)cc3)no2)cc(OC)c1OC`, the GI50 in the experiment on UO-31 renal was 6 µM; in the experiment on HCT-15 colon it was 18.9 µM; in the experiment with MDA-MB-435, 7.15 µM; in the experiment on EKVX NSCLC, 24.9 µM; in the experiment on OVCAR-5 ovarian, 27.3 µM; with HOP-62 NSCLC, 11 µM. For the same compound, the GI50 was 7.08 µM in the experiment on DU-145 prostate, 13.5 µM in the experiment with A549 NSCLC, 9.05 µM in the experiment with SF-539 CNS and 0.816 µM in the experiment on RXF 393 renal. Besides, the TGI in the experiment on UO-31 renal was above 100 µM; with HCT-15 colon, above 100 µM; in the experiment with MDA-MB-435, above 100 µM; in the experiment with EKVX NSCLC, above 100 µM; in the experiment with OVCAR-5 ovarian, above 100 µM; in the experiment on HOP-62 NSCLC it was 84.2 µM. Also, the TGI is above 100 µM with DU-145 prostate, above 100 µM with A549 NSCLC, above 100 µM in the experiment on SF-539 CNS and 7.08 µM in the experiment with RXF 393 renal.
